Experiment [1] concerns the target T1, bovine beta-2 adrenoceptor (Bos taurus, UniProt Q28044).
T1 construct: expressed in transfected cells; host or cells: CHO cells
The experiment is described as follows: cAMP assay in CHO cells transfected with the bovine beta-2 adrenoceptor (DiscoveRx Hit Hunter cAMP II). It is filed as cell-based. As to conditions: CHO cells transfected with bovine beta-2 adrenoceptor, 30 minutes incubation with compound. Put shortly:
(§1)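 CHO cells expressing porcine or bovine β2 receptor pre-incubated 30 min with 0.5 mM IBMX, then exposed to compound (5×10^−12 to 10^−5 M) for 30 min at 37 °C. cAMP read by enzyme-fragment complementation kit; duplicate samples, EC50 from curve fitting.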
In general terms: Cyclic AMP is a second messenger, typically raised through Gs and lowered through Gi signalling.

Experiment [2] deals with T2, porcine beta-2 adrenoceptor (Sus scrofa, UniProt Q28997).
T2 construct: expressed in transfected cells; host or cells: CHO cells
The experiment can be described thus: cAMP assay in CHO cells transfected with the porcine beta-2 adrenoceptor (DiscoveRx Hit Hunter cAMP II). The format is cell-based. To be noted: CHO cells transfected with porcine beta-2 adrenoceptor, 30 minutes incubation with compound. The gist of the method: as §1

T1 sequence (Q28044 whole entry): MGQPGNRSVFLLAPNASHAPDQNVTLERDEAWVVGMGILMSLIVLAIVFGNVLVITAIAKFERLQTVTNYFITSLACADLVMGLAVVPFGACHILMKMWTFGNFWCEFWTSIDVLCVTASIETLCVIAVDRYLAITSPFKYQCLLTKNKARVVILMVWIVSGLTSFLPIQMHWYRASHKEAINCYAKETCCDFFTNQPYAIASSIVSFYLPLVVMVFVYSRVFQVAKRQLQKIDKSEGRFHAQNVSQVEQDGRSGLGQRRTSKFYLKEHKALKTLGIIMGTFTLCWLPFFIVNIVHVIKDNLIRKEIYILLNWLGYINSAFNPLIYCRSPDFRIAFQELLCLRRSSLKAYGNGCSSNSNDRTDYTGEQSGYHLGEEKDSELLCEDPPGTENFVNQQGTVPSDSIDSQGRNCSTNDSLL
T2 sequence (Q28997 whole entry): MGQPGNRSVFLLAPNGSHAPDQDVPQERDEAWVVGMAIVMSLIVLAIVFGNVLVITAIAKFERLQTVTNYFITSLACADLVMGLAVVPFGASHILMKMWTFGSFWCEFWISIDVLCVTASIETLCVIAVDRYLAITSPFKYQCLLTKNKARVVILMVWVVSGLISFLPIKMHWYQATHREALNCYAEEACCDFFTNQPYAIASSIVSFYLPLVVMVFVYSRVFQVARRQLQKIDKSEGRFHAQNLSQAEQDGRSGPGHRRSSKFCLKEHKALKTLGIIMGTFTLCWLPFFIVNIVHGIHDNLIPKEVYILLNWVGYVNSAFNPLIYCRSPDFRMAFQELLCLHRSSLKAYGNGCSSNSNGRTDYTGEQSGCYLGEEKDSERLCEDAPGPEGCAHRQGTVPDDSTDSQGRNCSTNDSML

`CC(CCc1cncs1)N[C@@H]1CCn2c(=O)[nH]c3cccc(c32)[C@H]1O` (single isomer, unassigned) [Example 6b, 7-Hydroxy-6-{[1-methyl-3-(1,3-thiazol-5-yl)propyl]amino}-4,5,6,7-tetrahydroimidazo[4,5,1-jk][1]benzazepin-2(1H)-one]: the EC50 in experiment [1] was 3.6 nM; in experiment [2], above 10000 nM.
On to `Cc1nn(C)c(C)c1CCC(C)N[C@@H]1CCn2c(=O)[nH]c3cccc(c32)[C@H]1O` (single isomer, unassigned) [Example 9b, 7-Hydroxy-6-{[1-methyl-3-(1,3,5-trimethyl-1H-pyrazol-4-yl)propyl]amino}-4,5,6,7-tetrahydroimidazo[4,5,1-jk][1]benzazepin-2(1H)-one], for which the EC50 in experiment [1] is 4.2 nM; in experiment [2] it was 2.8 nM.
The matching figures for `Cc1[nH]c2ccccc2c1CCC(C)N[C@@H]1CCn2c(=O)[nH]c3cccc(c32)[C@H]1O` (mixture of isomers) [Example 3b, 7-Hydroxy-6-{[1-methyl-3-(2-methyl-1H-indol-3-yl)propyl]amino}-4,5,6,7-tetrahydroimidazo[4,5,1-jk][1]benzazepin-2(1H)-one]: 5.5 nM and 3 nM.
In the case of `CC(CCc1c[nH]c2ccc(Cl)cc12)N[C@@H]1CCn2c(=O)[nH]c3cccc(c32)[C@H]1O` (single isomer, unassigned) [Example 21b, 6-{[3-(5-Chloro-1H-indol-3-yl)-1-methylpropyl]amino}-7-hydroxy-4,5,6,7-tetrahydroimidazo[4,5,1-jk][1]benzazepin-2(1H)-one], the EC50 in experiment [1] stood at 15 nM; in experiment [2], 11 nM.
On to `CC(CCc1cc(F)cc2cc[nH]c12)N[C@@H]1CCn2c(=O)[nH]c3cccc(c32)[C@H]1O` (mixture of isomers) [Example 1b, 6-{[3-(5-Fluoro-1H-indol-7-yl)-1-methylpropyl]amino}-7-hydroxy-4,5,6,7-tetrahydroimidazo[4,5,1-jk][1]benzazepin-2(1H)-one], for which the EC50 stood at 0.7 nM in experiment [1] and 1 nM in experiment [2].
On the same counts, the results for `CC(CCc1cccc2cc[nH]c12)N[C@@H]1CCn2c(=O)[nH]c3cccc(c32)[C@H]1O` (single isomer, unassigned) [Example 38c, 7-Hydroxy-6-{[3-(1H-indol-7-yl)-1-methylpropyl]amino}-4,5,6,7-tetrahydroimidazo[4,5,1-jk][1]benzazepin-2(1H)-one] are 137 nM and 174 nM.
Turning to `CC(CCn1cnc2ccccc21)N[C@@H]1CCn2c(=O)[nH]c3cccc(c32)[C@H]1O` (single isomer, unassigned) [Example 51], the figures for the EC50 in experiment [1] and in experiment [2] were 0.6 nM and 0.9 nM, respectively.
Consider `CC(CCc1cc(Cl)cc2cc[nH]c12)N[C@@H]1CCn2c(=O)[nH]c3cccc(c32)[C@H]1O` (mixture of isomers) [Example 35, 6-{[3-(5-Chloro-1H-indol-7-yl)-1-methylpropyl]amino}-7-hydroxy-4,5,6,7-tetrahydroimidazo[4,5,1-jk][1]benzazepin-2(1H)-one], for which the half-maximal effective concentration (EC50) in experiment [1] was found to be 0.8 nM; in experiment [2], 2 nM.
`Cc1cc(CCC(C)N[C@@H]2CCn3c(=O)[nH]c4cccc(c43)[C@H]2O)ccn1` (single isomer, unassigned) [Example 63]: the values for the EC50 in experiment [1] and in experiment [2] were 81 nM and 25 nM, respectively.
On to `CC(CCc1c[nH]c2ccncc12)N[C@@H]1CCn2c(=O)[nH]c3cccc(c32)[C@H]1O` (mixture of isomers) [Example 31c, 7-Hydroxy-6-{[1-methyl-3-(1H-pyrrolo[3,2-c]pyridin-3-yl)-propyl]amino}-4,5,6,7-tetrahydroimidazo[4,5,1-jk][1]benzazepin-2(1H)-one], for which the EC50 turned out to be 366 nM in experiment [1] and 19 nM in experiment [2].
As for `CC(CCn1cncn1)N[C@@H]1CCn2c(=O)[nH]c3cccc(c32)[C@H]1O` (single isomer, unassigned) [Example 61], the figures for the EC50 in experiment [1] and in experiment [2] were 28 nM and 18 nM, respectively.
The matching figures for `Cc1nn(C)cc1CCC(C)N[C@@H]1CCn2c(=O)[nH]c3cccc(c32)[C@H]1O` (single isomer, unassigned) [Example 59]: 20 nM and 17 nM.
On the same counts, the results for `CC(CCc1cn(C)c2ccccc12)N[C@@H]1CCn2c(=O)[nH]c3cccc(c32)[C@H]1O` (mixture of isomers) [Example 14b, 7-Hydroxy-6-{[1-methyl-3-(1-methyl-1H-indol-3-yl)propyl]amino}-4,5,6,7-tetrahydroimidazo[4,5,1-jk][1]benzazepin-2(1H)-one] are 8 nM and 5.8 nM.
The matching figures for `Cc1nc(C)c(CCC(C)N[C@@H]2CCn3c(=O)[nH]c4cccc(c43)[C@H]2O)s1` (single isomer, unassigned) [Example 23a, 6-{[3-(2,4-Dimethyl-1,3-thiazol-5-yl)-1-methylpropyl]amino}-7-hydroxy-4,5,6,7-tetrahydroimidazo[4,5,1-jk][1]benzazepin-2(1H)-one]: 153 nM and 121 nM.

One may read the EC50 as the concentration at which the effect is half-maximal.

Source of the values: patent publication US20080267942A1, “BENZAZEPIN-2(1H)-ONE DERIVATIVES” (Pfizer Limited, priority 2006, published 2008).
